Assay results reported in EP4755888A1 (ILAb Co., Ltd., priority 2023, dated 2025).

Each compound was assayed against PD-1/PD-L1 (Homo sapiens, UniProt Q9NZQ7) (assay: TR-FRET PD-1/PD-L1 binding inhibition at the molecular level (free proteins)). Conditions: Tag1-PD-L1 and Tag2-PD-1 proteins, twelve concentrations from 200 nM, 2 hours at room temperature, read-out: FRET assay (IC50).
Procedure: In order to evaluate the inhibitory activity of the compounds synthesized according to the above Preparation Examples against PD-1/PD-L1 molecules in a free protein state,a TR-FRET (Time-Resolved Fluorescence Energy Transfer) experimetn was performed as described below.
Specifically, the compounds were prepared in a 96-well plate by serial dilution starting from 200 nM with 1/2 dilutions to obtain a total of twelve concentrations, and 2 µL of each compound solution was added to a 384-well plate. Thereafter, Tag1-PD-L1 protein and Tag2-PD-1 protein were each prepared at a 1x concentration, mixed at a ratio of 1:1, and 8 µL of the mixed solution was added to each well of the 384-well plate containing the compounds. Anti-Tag1 Eu Cryptate reagent and Anti-Tag2 XL665 antibody were each prepared at a 1* concentration, mixed at a ratio of 1:1, and 10 µL of the mixed solution was added to each well of the 384-well plate containing the compounds and proteins, followed by incubation at room temperature for 2 hours. Upon completion of the reaction, fluorescence signals at wavelengths of 620 nm and 665 nm were measured using a microplate reader.

PD-1/PD-L1, sequence (Q9NZQ7 19-238 limits assumed): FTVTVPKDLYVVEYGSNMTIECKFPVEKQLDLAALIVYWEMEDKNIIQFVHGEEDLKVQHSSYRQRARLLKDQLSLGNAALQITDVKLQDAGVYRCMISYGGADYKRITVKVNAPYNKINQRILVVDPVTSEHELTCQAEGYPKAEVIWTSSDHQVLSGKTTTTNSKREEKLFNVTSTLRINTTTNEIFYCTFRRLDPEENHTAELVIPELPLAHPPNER

SMILES | IC50 [nM]
O=C(Nc1cccc(-c2cccc(Nc3nc(C(F)(F)F)nc4cc(CN5CC[C@@H](O)C5)cnc34)c2Cl)c1Cl)c1cc2n(n1)CCC[C@H]2N1CC[C@@H](O)C1 [Compound 339, (R)-N-(2,2'-dichloro-3'-((7-(((R)-3-hydroxypyrrolidin-1-yl)methyl)-2-(trifluoromethyl)pyrido[3,2-d]pyrimidin-4-yl)amino)-[1,1'-biphenyl]-3-yl)-4-((R)-3-hydroxypyrrolidin-1-yl)-4,5,6,7-tetrahydropyrazolo[1,5-a]pyridine-2-carboxamide] | 10 to 100
O=C(Nc1cccc(-c2cccc(Nc3nccc4cc(CN5CC[C@@H](O)C5)cnc34)c2Cl)c1Cl)c1cc2n(n1)CCCC2N1CC(O)C1 (stereo partly drawn) [Compound 232, N-(2,2'-dichloro-3'-((3-(((R)-3-hydroxypyrrolidin-1-yl)methyl)-1,7-naphthyridin-8-yl)amino)-[1,1'-biphenyl]-3-yl)-4-(3-hydroxyazetidin-1-yl)-4,5,6,7-tetrahydropyrazolo[1,5-a]pyridine-2-carboxamide] | 10 to 100
CN[C@H]1CCCn2nc(C(=O)Nc3cccc(-c4cccc(Nc5nc(C(F)(F)F)nc6cccnc56)c4Cl)c3Cl)cc21 [Compound 356, (S)-N-(2,2'-dichloro-3'-((2-(trifluoromethyl)pyrido[3,2-d]pyrimidin-4-yl)amino)-[1,1'-biphenyl]-3-yl)-4-(methylamino)-4,5,6,7-tetrahydropyrazolo[1,5-a]pyridine-2-carboxamide] | 10 to 100
COc1cc(C(=O)Nc2cccc(-c3cccc(NC(=O)c4cc5n(n4)CCCC5N4CC[C@@H](C(=O)O)C4)c3Cl)c2Cl)cc(F)c1CN1CC[C@@H](O)C1 (stereo partly drawn) [Compound 196, (3R)-1-(2-((2,2'-dichloro-3'-(3-fluoro-4-(((R)-3-hydroxypyrrolidin-1-yl)methyl)-5-methoxybenzamido)-[1,1'-biphenyl]-3-yl)carbamoyl)-4,5,6,7-tetrahydropyrazolo[1,5-a]pyridin-4-yl)pyrrolidine-3-carboxylic acid] | < 10
O=C(Nc1cccc(-c2cccc(NC(=O)c3cc4n(n3)CCCC4N3CC[C@@H](C(=O)O)C3)c2Cl)c1Cl)c1ccc(CNCCO)cn1 (stereo partly drawn) [Compound 86, (3R)-1-(2-((2,2'-dichloro-3'-(5-(((2-hydroxyethyl)amino)methyl)picolinamido)-[1,1'-biphenyl]-3-yl)carbamoyl)-4,5,6,7-tetrahydropyrazolo[1,5-a]pyridin-4-yl)pyrrolidine-3-carboxylic acid] | < 10
Cc1c(Nc2nccc3cc(CN4CC[C@@H](O)C4)cnc23)cccc1-c1cccc(NC(=O)c2cc3n(n2)CCCC3NCCO)c1Cl (stereo partly drawn) [Compound 28, N-(2-chloro-3'-((3-(((R)-3-hydroxypyrrolidin-1-yl)methyl)-1,7-naphthyridin-8-yl)amino)-2'-methyl-[1,1'-biphenyl]-3-yl)-4-((2-hydroxyethyl)amino)-4,5,6,7-tetrahydropyrazolo[1,5-a]pyridine-2-carboxamide] | < 10
O=C(Nc1cccc(-c2cccc(Nc3nccc4cc(CN5CC[C@@H](O)C5)cnc34)c2Cl)c1Cl)c1cc2n(n1)CCCC2N1CC[C@@H](C(=O)O)C1 (stereo partly drawn) [Compound 22, (3R)-1-(2-((2,2'-dichloro-3'-((3-(((R)-3-hydroxypyrrolidin-1-yl)methyl)-1,7-naphthyridin-8-yl)amino)-[1,1'-biphenyl]-3-yl)carbamoyl)-4,5,6,7-tetrahydropyrazolo[1,5-a]pyridin-4-yl)pyrrolidine-3-carboxylic acid] | < 10
O=C(Nc1cccc(-c2cccc(Nc3nc(C(F)(F)F)nc4cccnc34)c2Cl)c1Cl)c1cc2n(n1)CCC[C@@H]2N1CCC(O)CC1 [Compound 303, (S)-N-(2,2'-dichloro-3'-((2-(trifluoromethyl)pyrido[3,2-d]pyrimidin-4-yl)amino)-[1,1'-biphenyl]-3-yl)-4-(4-hydroxypiperidin-1-yl)-4,5,6,7-tetrahydropyrazolo[1,5-a]pyridine-2-carboxamide] | 10 to 100
Cc1c(-c2cc3n(n2)CCCC3NCCO)cccc1-c1cccc(-c2cc3n(n2)CCCC3N2CC[C@@H](O)C2)c1C (stereo partly drawn) [Compound 157, (3R)-1-(2-(3'-(4-((2-hydroxyethyl)amino)-4,5,6,7-tetrahydropyrazolo[1,5-a]pyridin-2-yl)-2,2'-dimethyl-[1,1'-biphenyl]-3-yl)-4,5,6,7-tetrahydropyrazolo[1,5-a]pyridin-4-yl)pyrrolidin-3-ol] | > 1000
O=C(Nc1cccc(-c2cccc(Nc3nccc4cc(CN5CC[C@@H](O)C5)cnc34)c2Cl)c1Cl)c1cc2n(n1)CCCC2O (stereo partly drawn) [Compound 18, N-(2,2'-dichloro-3'-((3-(((R)-3-hydroxypyrrolidin-1-yl)methyl)-1,7-naphthyridin-8-yl)amino)-[1,1'-biphenyl]-3-yl)-4-hydroxy-4,5,6,7-tetrahydropyrazolo[1,5-a]pyridine-2-carboxamide] | 10 to 100
Cc1c(NC(=O)c2cc3n(n2)CCCC3NCCO)cccc1-c1cccc(Nc2nccc3cc(CN4CC[C@@H](O)C4)cnc23)c1C (stereo partly drawn) [Compound 14, 4-((2-hydroxyethyl)amino)-N-(3'-((3-(((R)-3-hydroxypyrrolidin-1-yl)methyl)-1,7-naphthyridin-8-yl)amino)-2,2'-dimethyl-[1,1'-biphenyl]-3-yl)-4,5,6,7-tetrahydropyrazolo[1,5-a]pyridine-2-carboxamide] | < 10
Cc1c(NC(=O)c2ccc(CN3CC[C@@H](O)C3)cn2)cccc1-c1cccc(NC(=O)c2cc3n(n2)CCCC3N2CCC(C(=O)O)CC2)c1C (stereo partly drawn) [Compound 98, 1-(2-((3'-(5-(((R)-3-hydroxypyrrolidin-1-yl)methyl)picolinamido)-2,2'-dimethyl-[1,1'-biphenyl]-3-yl)carbamoyl)-4,5,6,7-tetrahydropyrazolo[1,5-a]pyridin-4-yl)piperidine-4-carboxylic acid] | < 10
O=C(O)CN[C@H]1CCCn2nc(C(=O)Nc3cccc(-c4cccc(NC(=O)c5cc6n(n5)CCC[C@@H]6NCCO)c4Cl)c3Cl)cc21 [Compound 315, 2-(((S)-2-((2,2'-dichloro-3'-((S)-4-((2-hydroxyethyl)amino)-4,5,6,7-tetrahydropyrazolo[1,5-a]pyridine-2-carboxamido)-[1,1'-biphenyl]-3-yl)carbamoyl)-4,5,6,7-tetrahydropyrazolo[1,5-a]pyridin-4-yl)amino)acetic acid] | < 10

Continued, values first:

IC50 [nM] | SMILES
< 10 | Cc1c(NC(=O)c2cc3n(n2)CCCC3NCC(=O)O)cccc1-c1cccc(Nc2nccc3cc(CN4CC[C@@H](O)C4)cnc23)c1C (stereo partly drawn) [Compound 16, 2-((2-((3'-((3-(((R)-3-hydroxypyrrolidin-1-yl)methyl)-1,7-naphthyridin-8-yl)amino)-2,2'-dimethyl-[1,1'-biphenyl]-3-yl)carbamoyl)-4,5,6,7-tetrahydropyrazolo[1,5-a]pyridin-4-yl)amino)acetic acid]
< 10 | Cc1c(NC(=O)c2ccc(CNCCO)cn2)cccc1-c1cccc(NC(=O)c2cc3n(n2)CCCC3N2CCC(O)CC2)c1C (centres unmarked) [Compound 78, N-(3'-(5-(((2-hydroxyethyl)amino)methyl)picolinamido)-2,2'-dimethyl-[1,1'-biphenyl]-3-yl)-4-(4-hydroxypiperidin-1-yl)-4,5,6,7-tetrahydropyrazolo[1,5-a]pyridine-2-carboxamide]
< 10 | CC(=O)NCCNC1CCCn2nc(C(=O)Nc3cccc(-c4cccc(Nc5nccc6cc(CN7CC[C@@H](O)C7)cnc56)c4C)c3Cl)cc21 (stereo partly drawn) [Compound 30, 4-((2-acetamidoethyl)amino)-N-(2-chloro-3'-((3-(((R)-3-hydroxypyrrolidin-1-yl)methyl)-1,7-naphthyridin-8-yl)amino)-2'-methyl-[1,1'-biphenyl]-3-yl)-4,5,6,7-tetrahydropyrazolo[1,5-a]pyridine-2-carboxamide]
< 10 | CN(C)[C@H]1CCCn2nc(C(=O)Nc3cccc(-c4cccc(NC(=O)c5cc6n(n5)CCC[C@@H]6NCC(=O)O)c4Cl)c3Cl)cc21 [Compound 314, 2-(((S)-2-((2,2'-dichloro-3'-((S)-4-(dimethylamino)-4,5,6,7-tetrahydropyrazolo[1,5-a]pyridine-2-carboxamido)-[1,1'-biphenyl]-3-yl)carbamoyl)-4,5,6,7-tetrahydropyrazolo[1,5-a]pyridin-4-yl)amino)acetic acid]
< 10 | O=C(Nc1cccc(-c2cccc(Nc3nc(C(F)F)nc4cc(CN5CC[C@@H](O)C5)cnc34)c2Cl)c1Cl)c1cc2n(n1)CCCC2N1CCC(C(=O)O)CC1 (stereo partly drawn) [Compound 145, 1-(2-((2,2'-dichloro-3'-((2-(difluoromethyl)-7-({(R)-3-hydroxypyrrolidin-1-yl)methyl)pyrido[3,2-d]pyrimidin-4-yl)amino)-[1,1'-biphenyl]-3-yl)carbamoyl)-4,5,6,7-tetrahydropyrazolo[1,5-a]pyridin-4-yl)piperidine-4-carboxylic acid]
< 10 | Cc1c(NC(=O)c2ccc(CN3CC[C@@H](O)C3)cn2)cccc1-c1cccc(NC(=O)c2cc3n(n2)CCN(CC(=O)O)C3)c1C [Compound 326, (R)-2-(2-((3'-(5-((3-hydroxypyrrolidin-1-yl)methyl)picolinamido)-2,2'-dimethyl-[1,1'-biphenyl]-3-yl)carbamoyl)-6,7-dihydropyrazolo[1,5-a]pyrazin-5(4H)-yl)acetic acid]
< 10 | O=C(O)CNC1CCCn2nc(C(=O)Nc3cccc(-c4cccc(NC(=O)c5ccc(CNCCO)c(F)n5)c4Cl)c3Cl)cc21 (centres unmarked) [Compound 198, 2-((2-((2,2'-dichloro-3'-(6-fluoro-5-(((2-hydroxyethyl)amino)methyl)picolinamido)-[1,1'-biphenyl]-3-yl)carbamoyl)-4,5,6,7-tetrahydropyrazolo[1,5-a]pyridin-4-yl)amino)acetic acid]
